Assay results: patent US11918582B2 (RAPT Therapeutics, Inc., priority 2021, dated 2024)
pIC50: −log10 of the molar value. Where a name gives a salt, the structure may show the parent alone.

Target: T1, human HPK1 (MAP4K1) (Homo sapiens, UniProt Q92918)
T1 construct: Recombinant human HPK1 kinase domain was obtained from ThermoFisher (Cat. #PV6357) and SignalChem (Cat. #M23-11G); purchased ThermoFisher; SignalChem PV6357; M23-11G
T1 sequence (Q92918 17-274 limits assumed): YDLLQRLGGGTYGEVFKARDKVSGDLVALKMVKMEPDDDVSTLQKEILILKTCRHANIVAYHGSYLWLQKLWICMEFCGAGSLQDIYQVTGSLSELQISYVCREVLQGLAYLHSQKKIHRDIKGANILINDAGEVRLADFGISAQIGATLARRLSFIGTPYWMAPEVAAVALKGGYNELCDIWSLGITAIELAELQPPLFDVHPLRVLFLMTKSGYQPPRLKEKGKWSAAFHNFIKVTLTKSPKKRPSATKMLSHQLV
Experiment: Biochemical assay for activity against HPK1 (ADP-Glo, MBP substrate)
Conditions: recombinant human HPK1 kinase domain, 1 nM enzyme, ADP-Glo luminescence
In short: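 Recombinant human HPK1 kinase domain (1 nM solution) preincubated 15 min at room temperature with compounds in pH 7.5 HEPES buffer with NaCl, TCEP, MgCl2, Tween-20, BSA. MBP substrate with ATP added, reaction run 2 h at room temperature. ADP formation read by ADP-Glo luminescence to give IC50.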

SMILES | pIC50
COc1cc2c(cc1Nc1ncc3cnn([C@H]4CC[C@H](OC)CC4)c3n1)CN(C)CC2 [Example 47, 6-methoxy-N-(1-(trans-4-methoxycyclohexyl)-1H-pyrazolo[3,4-d]pyrimidin-6-yl)-2-methyl-1,2,3,4-tetrahydroisoquinolin-7-amine] | > 7.00
COc1cc2c(cc1Nc1ncc3cnn([C@H]4CC[C@H](O)CC4)c3n1)CN(C)CC2 [Example 49, trans-4-(6-((6-methoxy-2-methyl-1,2,3,4-tetrahydroisoquinolin-7-yl)amino)-1H-pyrazolo[3,4-d]pyrimidin-1-yl)cyclohexan-1-ol] | > 7.00
COc1cc2c(cc1Nc1ncc3c(C)nn([C@H]4CC[C@H](O)CC4)c3n1)CN(C)CC2 [Example 50, trans-4-(6-((6-methoxy-2-methyl-1,2,3,4-tetrahydroisoquinolin-7-yl)amino)-3-methyl-1H-pyrazolo[3,4-d]pyrimidin-1-yl)cyclohexan-1-ol] | > 7.00
COc1cc2c(cc1Nc1ncc3c(C)nn([C@H]4CC[C@@H](C(N)=O)CC4)c3n1)CN(C)CC2 [Example 51, (cis)-4-(6-((6-methoxy-2-methyl-1,2,3,4-tetrahydroisoquinolin-7-yl)amino)-3-methyl-1H-pyrazolo[3,4-d]pyrimidin-1-yl)cyclohexane-1-carboxamide] | > 7.00
CNC(=O)[C@H]1CC[C@@H](n2nc(C)c3cnc(Nc4cc5c(cc4OC)CCN(C)C5)nc32)CC1 [Example 52, (cis)-4-(6-((6-methoxy-2-methyl-1,2,3,4-tetrahydroisoquinolin-7-yl)amino)-3-methyl-1H-pyrazolo[3,4-d]pyrimidin-1-yl)-N-methylcyclohexane-1-carboxamide] | > 7.00
CNC(=O)[C@@H]1CCC[C@@H](n2ncc3cnc(Nc4cc5c(cc4OC)CCN(C)C5)nc32)C1 [Example 53, (1R,3R)-3-(6-((6-methoxy-2-methyl-1,2,3,4-tetrahydroisoquinolin-7-yl)amino)-1H-pyrazolo[3,4-d]pyrimidin-1-yl)-N-methylcyclohexane-1-carboxamide] | > 7.00
COc1cc2c(cc1Nc1ncc3cnn([C@H]4CC[C@@H](C(=O)N(C)C)CC4)c3n1)CN(C)CC2 [Example 54, (1s,4s)-4-(6-((6-methoxy-2-methyl-1,2,3,4-tetrahydroisoquinolin-7-yl)amino)-1H-pyrazolo[3,4-d]pyrimidin-1-yl)-N,N-dimethylcyclohexane-1-carboxamide] | > 7.00
COc1cc2c(cc1Nc1ncc3cnn([C@H]4CC[C@H](C(=O)N(C)C)CC4)c3n1)CN(C)CC2 [Example 55, (1r,4r)-4-(6-((6-methoxy-2-methyl-1,2,3,4-tetrahydroisoquinolin-7-yl)amino)-1H-pyrazolo[3,4-d]pyrimidin-1-yl)-N,N-dimethylcyclohexane-1-carboxamide] | > 7.00
COc1cc2c(cc1Nc1ncc3c(C)nn([C@@H]4CCC[C@@H](C(N)=O)C4)c3n1)CN(C)CC2 [Example 56, (1R,3R)-3-(6-((6-methoxy-2-methyl-1,2,3,4-tetrahydroisoquinolin-7-yl)amino)-3-methyl-1H-pyrazolo[3,4-d]pyrimidin-1-yl)cyclohexane-1-carboxamide] | > 7.00
CN1CCc2c(cc(Nc3ncc4cnn([C@H]5CC[C@H](CO)CC5)c4n3)cc2C(F)(F)F)C1 [Example 57, ((1r,4r)-4-(6-((2-methyl-5-(trifluoromethyl)-1,2,3,4-tetrahydroisoquinolin-7-yl)amino)-1H-pyrazolo[3,4-d]pyrimidin-1-yl)cyclohexyl)methanol] | > 7.00
CN1CCc2c(cc(Nc3ncc4cnn([C@H]5CC[C@H](O)CC5)c4n3)cc2C(F)(F)F)C1 [Example 58, (1r,4r)-4-(6-((2-methyl-5-(trifluoromethyl)-1,2,3,4-tetrahydroisoquinolin-7-yl)amino)-1H-pyrazolo[3,4-d]pyrimidin-1-yl)cyclohexan-1-ol] | > 7.00
CNC(=O)[C@H]1CC[C@H](n2ncc3cnc(Nc4cc5c(cc4OC)CCN(C)C5)nc32)CC1 [Example 60, (1r,4r)-4-(6-((6-methoxy-2-methyl-1,2,3,4-tetrahydroisoquinolin-7-yl)amino)-1H-pyrazolo[3,4-d]pyrimidin-1-yl)-N-methylcyclohexane-1-carboxamide] | > 7.00
COc1cc2c(cc1Nc1ncc3cnn(CC4CC(CO)C4)c3n1)CN(C)CC2 (stereo not drawn) [Example 61, (3-((6-((6-methoxy-2-methyl-1,2,3,4-tetrahydroisoquinolin-7-yl)amino)-1H-pyrazolo[3,4-d]pyrimidin-1-yl)methyl)cyclobutyl)methanol] | > 7.00
CC(=O)N1CCC[C@H]1Cn1ncc2cnc(Nc3cc4c(c(C(F)(F)F)c3)CCN(C)C4)nc21 [Example 62, (S)-1-(2-((6-((2-methyl-5-(trifluoromethyl)-1,2,3,4-tetrahydroisoquinolin-7-yl)amino)-1H-pyrazolo[3,4-d]pyrimidin-1-yl)methyl)182thenone182ne-1-yl)ethan-1-one] | > 7.00

Other lines, results leading:

pIC50 | SMILES
> 7.00 | COc1cc2c(cc1Nc1ncc3cnn([C@H]4CCC[C@H](CO)C4)c3n1)CN(C)CC2 [Example 63, ((1S,3S)-3-(6-((6-methoxy-2-methyl-1,2,3,4-tetrahydroisoquinolin-7-yl)amino)-1H-pyrazolo[3,4-d]pyrimidin-1-yl)cyclohexyl)methanol hydrochloride]
> 7.00 | COc1cc2c(cc1Nc1ncc3cnn([C@H]4C[C@H](CO)C4)c3n1)CN(C)CC2 [Example 65, trans-[3-[6-[(6-methoxy-2-methyl-3,4-dihydro-1H-isoquinolin-7-yl)amino]pyrazolo[3,4-d]pyrimidin-1-yl]cyclobutyl]methanol]
> 7.00 | COc1cc2c(cc1Nc1ncc3cnn([C@H]4C[C@@H](CO)C4)c3n1)CN(C)CC2 [Example 66, cis-[3-[6-[(6-methoxy-2-methyl-3,4-dihydro-1H-isoquinolin-7-yl)amino]pyrazolo[3,4-d]pyrimidin-1-yl]cyclobutyl]methanol]
> 7.00 | COc1cc2c(cc1Nc1ncc3cnn([C@H]4CC[C@@H](CO)CC4)c3n1)CN(C)CC2 [Example 67, cis-[4-[6-[(6-methoxy-2-methyl-3,4-dihydro-1H-isoquinolin-7-yl)amino]pyrazolo[3,4-d]pyrimidin-1-yl]cyclohexyl]methanol]
> 7.00 | COc1cc2c(cc1Nc1ncc3c(C)nn([C@H]4CC[C@H](CO)CC4)c3n1)CN(C)CC2 [Example 68, trans-[4-[6-[(6-methoxy-2-methyl-3,4-dihydro-1H-isoquinolin-7-yl)amino]-3-methyl-pyrazolo[3,4-d]pyrimidin-1-yl]cyclohexyl]methanol]
> 7.00 | COc1cc2c(cc1Nc1ncc3cnn([C@H]4CC[C@H](NC(C)=O)CC4)c3n1)CN(C)CC2 [Example 69, trans-N-[4-[6-[(6-methoxy-2-methyl-3,4-dihydro-1H-isoquinolin-7-yl)amino]pyrazolo[3,4-d]pyrimidin-1-yl]cyclohexyl]acetamide]
> 7.00 | COc1cc2c(cc1Nc1ncc3cnn([C@H]4C[C@](C)(C(=O)OC)C4)c3n1)CN(C)CC2 [Example 70, trans-methyl 3-[6-[(6-methoxy-2-methyl-3,4-dihydro-1H-isoquinolin-7-yl)amino]pyrazolo[3,4-d]pyrimidin-1-yl]-1-methyl-cyclobutanecarboxylate]
> 7.00 | COc1cc2c(cc1Nc1ncc3cnn([C@H]4C[C@](C)(C(=O)O)C4)c3n1)CN(C)CC2 [Example 71, 3-[6-[(6-methoxy-2-methyl-3,4-dihydro-1H-isoquinolin-7-yl)amino]pyrazolo[3,4-d]pyrimidin-1-yl]-1-methyl-cyclobutanecarboxylic acid]
> 7.00 | CNC(=O)[C@]1(C)C[C@@H](n2ncc3cnc(Nc4cc5c(cc4OC)CCN(C)C5)nc32)C1 [Example 73, trans-3-[6-[(6-methoxy-2-methyl-3,4-dihydro-1H-isoquinolin-7-yl)amino]pyrazolo[3,4-d]pyrimidin-1-yl]-N,1-methyl-cyclobutanecarboxamide]
> 7.00 | COc1cc2c(cc1Nc1ncc3cnn([C@H]4CC[C@H](NC(=O)CO)CC4)c3n1)CN(C)CC2 [Example 74, trans-2-hydroxy-N-[4-[6-[(6-methoxy-2-methyl-3,4-dihydro-1H-isoquinolin-7-yl)amino]pyrazolo[3,4-d]pyrimidin-1-yl]cyclohexyl]acetamide]
> 7.00 | COc1cc2c(cc1Nc1ncc3cnn([C@H]4C[C@](C)(CO)C4)c3n1)CN(C)CC2 [Example 76, trans-[3-[6-[(6-methoxy-2-methyl-3,4-dihydro-1H-isoquinolin-7-yl)amino]pyrazolo[3,4-d]pyrimidin-1-yl]-1-methyl-cyclobutyl]methanol]
> 7.00 | COc1cc2c(cc1Nc1ncc3cnn(C4CC(CO)(CO)C4)c3n1)CN(C)CC2 [Example 77, [1-(hydroxymethyl)-3-[6-[(6-methoxy-2-methyl-3,4-dihydro-1H-isoquinolin-7-yl)amino]pyrazolo[3,4-d]pyrimidin-1-yl]cyclobutyl]dimethanol]
> 7.00 | COc1cc2c(cc1Nc1ncc3c(C)nn([C@H]4CC[C@@H](CO)CC4)c3n1)CN(C)CC2 [Example 78, cis-[4-[6-[(6-methoxy-2-methyl-3,4-dihydro-1H-isoquinolin-7-yl)amino]-3-methyl-pyrazolo[3,4-d]pyrimidin-1-yl]cyclohexyl]methanol]
